Assay results taken from ChEMBL document CHEMBL5038569, “Targeting RECQL5 Functions, by a Small Molecule, Selectively Kills Breast Cancer in Vitro and in Vivo” (J Med Chem, 2021).
Activity calls are given as the source filed them. The rule behind the calls is not given here.

What was measured:
[1] = test system: MCF7; test: Induction of DNA damage in RECQL5 knock out human MCF7 cells assessed as double strand breaks by measuring increase in phosphorylation of ATM at S1981 residue at 20 uM measured up to 24 hrs by Western blot analysis; type: functional, cell-based; settings: time hrs <=24
[2] = test system: MCF7; test: Cytotoxicity against RECQL5 knock out human MCF7 cells assessed as cell growth inhibition measured after 72 hrs by MTT assay; type: functional; settings: dose 6-50 µM
[3] = test system: MCF7; test: Inhibition of homologous recombinant repair in human MCF7 cells expressing RECQL5 wildtype/ SceGFP/iGFP mutants assessed as I-SceI induced generation of resected double stand breaks by measuring GFP-expressing cells at 10 uM measured after 48 hrs by flow cytometry analysis; type: functional, cell-based
[4] = Toxicity in […] mouse assessed as fold change in SGPT level at 100 mg/kg, po administered as single dose via gavage measured after 30 days relative to control; type: organism-based; settings: in vivo, 720 h, time 30 day
[5] = test system: T47D; test: Inhibition of homologous recombinant repair in RECQL5 knock out human T47D cells assessed as stabilization of RAD51-RECQL5 interaction by measuring increase in RAD51 foci formation at 20 uM measured after 4 to 24 hrs by immunofluorescence microscopic analysis; type: functional, cell-based; settings: time 4-24 hrs
[6] = test system: MCF7; test: Induction of apoptosis in human MCF7 cells expressing wild type RECQL5 assessed as increase in sub-G1 cell population measured after 72 hrs by propidium iodide/RNase A staining based flow cytometric analysis; type: functional; settings: dose 2.5-20 µM
[7] = Toxicity in nude mouse xenografted with human MCF7 cells assessed as morphological changes in lungs at 50 mg/kg, po administered via oral gavage and measured after 30 days; type: organism-based; settings: in vivo, 720 h, time 30 day
[8] = Toxicity in […] mouse assessed as fold change in spleen cell count at 100 mg/kg, po administered as single dose via gavage measured after 30 days relative to control; type: organism-based; settings: in vivo, 720 h, time 30 day
[9] = Toxicity in nude mouse xenografted with human MCF7 cells assessed as morphological changes in kidney at 50 mg/kg, po administered via oral gavage and measured after 30 days; type: organism-based; settings: in vivo, 720 h, time 30 day
[10] = test system: MCF7; test: Induction of DNA damage in human MCF7 cells expressing wild type RECQL5 assessed as double strand breaks by measuring increase in phosphorylation of ATR at S428 residue at 20 uM measured up to 24 hrs by Western blot analysis; type: functional, cell-based; settings: time hrs <=24
[11] = test system: MCF7; test: Cytotoxicity against human MCF7 cells with shRNA-mediated RECQL5 depletion assessed as reduction in cell viability at 6 to 25 uM measured after 8 to 10 days by clonogenic survival assay; type: functional, cell-based; settings: dose 6-25 µM, time 8-10 day
[12] = test system: T47D; test: Inhibition of homologous recombinant repair in human T47D cells expressing wild type RECQL5 assessed as stabilization of RAD51-RECQL5 interaction by measuring increase in RAD51 foci formation at 20 uM measured after 4 to 24 hrs by immunofluorescence microscopic analysis; type: functional, cell-based; settings: time 4-24 hrs
[13] = test system: MCF7; test: Cytotoxicity against RECQL5 knock out human MCF7 cells expressing wild type RECQL5-FLAG assessed as reduction in colony formation at 10 uM measured after 8 to 10 days by clonogenic survival assay; type: functional, cell-based; settings: time 8-10 day
[14] = test system: MCF7; test: Cytotoxicity against human MCF7 cells with shRNA-mediated WRN depletion assessed as reduction in cell viability at 6 to 25 uM measured after 8 to 10 days by clonogenic survival assay; type: functional, cell-based; settings: dose 6-25 µM, time 8-10 day
[15] = test system: T47D; test: Induction of DNA damage in RECQL5 knock out human T47D cells assessed as double strand breaks by measuring increase in gamma-H2AX foci formation incubated for 24 hrs by immunofluorescence microscopic analysis; type: functional, cell-based
[16] = test system: MCF7; test: Stabilization of RECQL5-RAD51 complex in human MCF7 cells expressing wild type RECQL5 assessed as increase in accumulation of nucleus-bound RECQL5 and RAD51 at 20 uM measured after 4 to 24 hrs by Western blot analysis; type: cell-based; settings: time 4-24 hrs
[17] = Chronic toxicity in […] mouse assessed as change in stool texture at 100 mg/kg, po administered as single dose via gavage measured for 30 days; type: organism-based; settings: in vivo, 720 h, time 30 day
[18] = test system: MCF7; test: Induction of apoptosis in RECQL5 knock out human MCF7 cells assessed as increase in sub-G1 cell population measured after 72 hrs by propidium iodide/RNase A staining based flow cytometric analysis; type: functional; settings: dose 2.5-20 µM
[19] = test system: MCF7; test: Induction of cell sensitization to cisplatin in cisplatin-resistant human MCF-7 cells assessed as reduction in colony formation at 5 uM measured after 8 to 10 days by clonogenic survival assay; type: functional, cell-based; settings: time 8-10 day
[20] = test system: MCF7; test: Induction of apoptosis in human MCF7 cells expressing wild type RECQL5 assessed as fold increase in cell death at 20 uM measured after 72 hrs by propidium iodide/RNase A staining based flow cytometric analysis relative to control; type: functional
[21] = Toxicity in nude mouse xenografted with human MCF7 cells assessed as morphological changes in heart at 50 mg/kg, po administered via oral gavage and measured after 30 days; type: organism-based; settings: in vivo, 720 h, time 30 day
[22] = test system: MCF7; test: Induction of mitotic catastrophe phenotype in human MCF7 cells assessed as micronucleus formation at 20 uM pretreated with cisplatin for 8 hrs followed by compound addition and measured after 24 hrs by immunofluorescence microscopic analysis; type: functional, cell-based
[23] = test system: U2OS; test: Cytotoxicity against human U2OS cells expressing wild type RECQL5 and p53 mutant assessed as reduction in colony formation measured after 8 to 10 days by clonogenic survival assay; type: functional, cell-based; settings: time 8-10 day
[24] = Toxicity in […] mouse assessed as fold change in alkaline phosphatase level at 100 mg/kg, po administered as single dose via gavage measured after 30 days relative to control; type: organism-based; settings: in vivo, 720 h, time 30 day
[25] = test system: MCF7; test: Induction of mitotic catastrophe phenotype in human MCF7 cells assessed as fused nucleus at 20 uM pretreated with cisplatin for 8 hrs followed by compound addition and measured after 24 hrs by immunofluorescence microscopic analysis; type: functional, cell-based
[26] = test system: MCF7; test: Effect on homologous recombinant repair in RECQL5 knock out human MCF7 cells assessed as accumulation of RAD50 protein on chromatin at 20 uM incubated for 4 to 24 hrs by Western blot analysis; type: functional, cell-based; settings: time 4-24 hrs
[27] = Drug concentration in nude mouse serum at 50 mg/kg, po administered alternative days via gavage and measured upto 4 hrs by HPLC analysis; type: ADME, organism-based; settings: read-out: Drug uptake
[28] = biological target: T1, DNA repair protein RAD51 homolog 1 (Homo sapiens) (UniProt Q06609); test: Stabilization of RAD51 foci in human cisplatin-resistant MCF7 cells assessed as increase in RAD51 positive cells at 20 uM pretreated with cisplatin for 8 hrs followed by compound addition and measured after 24 hrs by immunofluorescence microscopic analysis; type: cell-based
T1 sequence (whole entry): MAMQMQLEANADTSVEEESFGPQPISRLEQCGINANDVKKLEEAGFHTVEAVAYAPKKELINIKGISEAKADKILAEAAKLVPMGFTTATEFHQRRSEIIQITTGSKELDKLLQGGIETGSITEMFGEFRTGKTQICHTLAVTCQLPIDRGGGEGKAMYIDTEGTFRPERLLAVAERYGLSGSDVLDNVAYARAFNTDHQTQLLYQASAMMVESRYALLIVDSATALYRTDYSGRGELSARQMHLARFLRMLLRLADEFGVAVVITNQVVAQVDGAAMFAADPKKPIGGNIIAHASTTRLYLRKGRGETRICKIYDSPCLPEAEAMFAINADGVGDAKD

## O=C(Nc1cc(C(F)(F)F)cc(C(F)(F)F)c1)N[C@@H](c1ccccc1)c1nnc(SCc2ccccc2)o1
[1]
  Activity: inactive
[2]
  IC20: 22.3 µM
[3]
  inhibition: Active
[4]
  fold change (FC): 0.92
[5]
  inhibition: inactive
[6]
  Activity: Dose-Dependent Effect
[7]
  Activity: Non-Toxic
[8]
  fold change (FC): 1.03
[9]
  Activity: Non-Toxic
[10]
  Activity: Active
[11]
  Activity: inactive
[12]
  inhibition: Active
[13]
  Activity: Active
[14]
  Activity: Active
[15]
  Activity: inactive
[16]
  Activity: inactive
[17]
  Activity: Non-Toxic
[18]
  Activity: Dose-Dependent Effect
[19]
  Activity: Active
[20]
  fold change (FC): 2.5
[21]
  Activity: Non-Toxic
[22]
  Activity: Active
[23]
  Activity: Active
[24]
  fold change (FC): 0.97
[25]
  Activity: Active
[26]
  Activity: inactive
[27]
  concentration at 4 h: 14.8 µM
[28]
  Activity: Active
